Literature values, collected in US20040132104A1, “Vitamin D assay” (priority 2003, published 2004).

Molecular target: T1, Vitamin D binding protein (Homo sapiens, UniProt P02774)
T1 sequence (P02774 17-474): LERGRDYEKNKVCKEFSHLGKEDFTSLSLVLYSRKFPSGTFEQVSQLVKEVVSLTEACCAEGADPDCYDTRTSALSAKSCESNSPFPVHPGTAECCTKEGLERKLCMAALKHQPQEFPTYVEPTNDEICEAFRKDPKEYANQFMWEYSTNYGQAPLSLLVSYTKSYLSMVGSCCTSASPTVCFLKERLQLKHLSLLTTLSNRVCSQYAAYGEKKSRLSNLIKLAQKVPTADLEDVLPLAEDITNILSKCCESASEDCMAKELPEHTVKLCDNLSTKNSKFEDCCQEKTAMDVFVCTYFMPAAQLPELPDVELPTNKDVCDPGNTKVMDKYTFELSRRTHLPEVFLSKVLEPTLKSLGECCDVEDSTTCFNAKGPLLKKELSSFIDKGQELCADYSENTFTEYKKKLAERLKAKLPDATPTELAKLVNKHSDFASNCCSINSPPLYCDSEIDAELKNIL
Settings: Vitamin D binding protein affinity for 25-OH Vitamin D

For 25-hydroxy-vitamin D [25-OH Vitamin D], the affinity is given as 5e+08 M⁻¹.
